Test results: ChEMBL document CHEMBL1201862, “PubChem BioAssay data set” (2004)
Calls of active or inactive are those of the source. Cut-off read from the data, not from the text of the source, for most assays here: actives have a measured EC50 and inactives only a lower limit.

Assays:
H4 = assay: Luminescence Cell-Based Dose Response HTS to Identify Activators of 5'UTR Stem-Loop Driven Prion Protein mRNA Translation in H4 Neuroglioblastoma Cells. [Related pubchem assays: 1829 (Project Summary), 1814 (Primary HTS)]; type: functional; details: Homo sapiens
[1] = Luminescence Cell-Based Dose Confirmation HTS to Identify Activators of 5'UTR Stem-Loop Driven Alpha-Synuclein mRNA Translation in H4 Neuroglioblastoma Cells. [Related pubchem assays: 1829 (Project Summary), 1814 (Primary HTS)]; type: functional
[2] = Luminescence Cell-Based Dose Response HTS to Identify Activators of Luciferase Translation or Activity in H4 […] Cells. [Related pubchem assays: 1829 (Project Summary), 1814 (Primary HTS)]; type: functional
[3] = viability of uninfected HEp-2 cells – cell-based, HTS, cytotoxicity control for RSV inhibitor project, dose response (AID 2410); type: functional; details: human respiratory syncytial virus
[4] = viability of PTEN-deleted HCT116 cells – cell-based, HCT116 PTEN knockout, dose response (AID 1047); type: functional;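 note: HCT116 colon tumor cells with PTEN knocked out; cells exposed to compound for 60 hours before readout; potency for loss of cell viability measured by luminescence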
[5] = viability of HCT116 lacking mutant beta-catenin – cell-based, human colon tumor, dose response (AID 1045); type: functional;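 note: HCT116 colon tumor cells with beta catenin knocked out; cells exposed to compound for 60 hours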
[6] = microbe, parasite or virus in culture; type: functional; details: Mycobacterium tuberculosis
[7] = target: T1, Rac GTPase-activating protein 1 (Homo sapiens, UniProt Q9H0H5); assay: blockers of MgcRacGAP-driven Rac1 GTP hydrolysis – biochemical, ADP Hunter fluorescence, primary and confirmatory, confirmation (AID 624330); type: functional
T1 sequence (Q9H0H5 whole entry): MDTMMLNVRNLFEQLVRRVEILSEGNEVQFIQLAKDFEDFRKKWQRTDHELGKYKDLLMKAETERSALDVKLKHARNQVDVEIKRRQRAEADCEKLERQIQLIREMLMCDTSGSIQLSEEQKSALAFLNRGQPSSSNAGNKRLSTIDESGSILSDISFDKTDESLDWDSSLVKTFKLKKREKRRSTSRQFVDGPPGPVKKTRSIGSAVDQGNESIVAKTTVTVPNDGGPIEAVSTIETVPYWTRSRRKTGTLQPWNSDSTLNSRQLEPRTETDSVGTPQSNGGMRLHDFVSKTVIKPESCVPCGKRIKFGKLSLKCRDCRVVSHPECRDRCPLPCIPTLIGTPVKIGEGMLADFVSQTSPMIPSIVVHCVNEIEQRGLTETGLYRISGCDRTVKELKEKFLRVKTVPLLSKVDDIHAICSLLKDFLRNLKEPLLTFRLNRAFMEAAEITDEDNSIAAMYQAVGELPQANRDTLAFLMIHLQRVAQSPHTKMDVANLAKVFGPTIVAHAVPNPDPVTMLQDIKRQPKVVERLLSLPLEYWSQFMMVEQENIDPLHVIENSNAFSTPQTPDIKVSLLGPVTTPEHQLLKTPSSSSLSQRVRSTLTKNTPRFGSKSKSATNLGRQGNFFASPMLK

[8] = NIH3T3 cell viability loss – ATP luminescence, mouse fibroblasts, counter-screen, dose response (AID 2010); type: functional, cell-based;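 note: cells exposed to compound for about 90 hours before reading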
[9] = Trypanosoma cruzi growth suppression in host cells – NIH3T3 host cells, beta-gal luminescence, confirmation (AID 2044); type: functional, cell-based;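 note: intracellular parasites grown in NIH/3T3 mouse fibroblasts as host cells; luminescent beta-galactosidase reporter signal from transgenic T. cruzi replicating inside host cells; inhibitors lower the luminescence signal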
INS1 = assay: INS-1E survival protection against cytokine death – cell-based, luminescence, retest, dose response (AID 449756); type: functional; details: Rattus norvegicus;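 note: cell death triggered by IL-1 beta plus TNF-alpha plus IFN-gamma mixture; protective hits raise ATP signal compared with cytokine alone wells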
[10] = fluconazole-exposed Candida albicans growth modulators – fluorescence, retest, confirmation (AID 2467); type: functional, cell-based
[11] = NIH-3T3 fibroblast cytotoxicity, dose response, cytotoxicity control, cell-based, fluorescence, Alamar Blue, secondary assay (AID 2327); type: functional;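 note: NIH-3T3 mouse fibroblasts cultured with fluconazole at 8 µg/mL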
Streptokinase A = target: T2, Streptokinase A (Streptococcus pyogenes serotype M1, UniProt P10520); assay: viability-normalized secreted streptokinase activity reduction – plasminogen activation absorbance, OD405, dose response (AID 1914); type: functional, Streptococcus pyogenes M1 GAS;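 note: secreted streptokinase activity via plasminogen activation per viability signal from cell pellet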
T2 sequence (P10520 whole entry): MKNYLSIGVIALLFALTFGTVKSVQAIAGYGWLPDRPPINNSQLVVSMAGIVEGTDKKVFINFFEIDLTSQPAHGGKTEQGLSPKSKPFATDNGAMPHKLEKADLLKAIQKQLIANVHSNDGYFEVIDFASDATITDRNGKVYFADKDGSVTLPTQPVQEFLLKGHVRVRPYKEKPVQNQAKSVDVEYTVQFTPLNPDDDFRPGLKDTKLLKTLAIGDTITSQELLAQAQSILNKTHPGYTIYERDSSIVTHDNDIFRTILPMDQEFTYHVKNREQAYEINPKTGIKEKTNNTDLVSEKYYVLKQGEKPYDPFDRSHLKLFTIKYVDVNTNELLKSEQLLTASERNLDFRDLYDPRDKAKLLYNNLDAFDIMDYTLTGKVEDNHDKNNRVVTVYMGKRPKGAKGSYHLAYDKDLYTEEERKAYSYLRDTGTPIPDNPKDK

Streptococcus = assay: GAS UMAA2166 growth inhibition – luminescence, BacTiterGlo, counter-screen for streptokinase expression inhibitor project, dose response (AID 1915); type: functional, organism-based;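 note: potency for reduction of bacterial viability or growth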
[12] = test system: Streptococcus sp. 'group A'; assay: Streptococcus pyogenes SK(-)GAS viability under kanamycin – luminescence, BacTiterGlo, confirmation, counter-screen for streptokinase expression inhibitor project, dose response (AID 1900); type: functional, organism-based
[13] = Luminescence Cell-Based Dose Confirmation HTS to Identify Inhibitors of Platelet Dense Granule Release. [Related pubchem assays: 1663 (Primary HTS), 1678 (Summary of Project)]; type: functional
[14] = target: Luciferin 4-monooxygenase (Photinus pyralis, UniProt P08659); assay: inhibition of purified Photinus pyralis luciferase – biochemical, luminescence, dose response (AID 1891)
Sequence of Luciferin 4-monooxygenase (P08659 whole entry): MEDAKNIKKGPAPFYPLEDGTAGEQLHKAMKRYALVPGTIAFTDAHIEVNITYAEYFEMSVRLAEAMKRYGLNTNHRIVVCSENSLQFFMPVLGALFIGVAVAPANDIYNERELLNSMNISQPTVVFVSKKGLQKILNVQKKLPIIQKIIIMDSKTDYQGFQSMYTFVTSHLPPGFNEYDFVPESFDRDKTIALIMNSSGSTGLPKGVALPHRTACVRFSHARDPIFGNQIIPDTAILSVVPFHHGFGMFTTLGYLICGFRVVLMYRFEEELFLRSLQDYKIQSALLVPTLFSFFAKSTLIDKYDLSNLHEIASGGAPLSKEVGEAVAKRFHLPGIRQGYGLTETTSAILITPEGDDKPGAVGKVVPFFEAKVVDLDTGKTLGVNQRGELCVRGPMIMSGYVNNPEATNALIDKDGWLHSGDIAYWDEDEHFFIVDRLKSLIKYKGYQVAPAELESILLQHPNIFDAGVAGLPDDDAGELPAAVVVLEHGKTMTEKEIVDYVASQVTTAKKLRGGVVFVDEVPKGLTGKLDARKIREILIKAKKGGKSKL

[15] = target: T3, Ubiquitin-conjugating enzyme E2 N (Homo sapiens, UniProt P61088); type: functional;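 note: Dose-response confirmation in a TR-FRET assay detecting UBC13-driven polyubiquitin chain formation, inhibition measured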
T3 sequence (P61088 whole entry): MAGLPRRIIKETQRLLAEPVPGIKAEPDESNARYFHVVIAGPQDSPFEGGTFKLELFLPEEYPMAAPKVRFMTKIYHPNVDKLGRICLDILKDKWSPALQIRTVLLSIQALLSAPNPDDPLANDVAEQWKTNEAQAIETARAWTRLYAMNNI

[16] = Luminescence Cell-Based Dose Retest to Confirm Inhibitors of Cancer Stem Cells. [Related pubchem assays (depositor defined):AID2717, AID2721]; type: functional; details: Homo sapiens

COc1ccc(C(=O)N/N=C/C(=O)c2ccccc2)cc1
EC50 (H4): 6.93 µM (active) | EC50 [1]: 5.67 µM (active) | EC50 [2]: 1.9 µM (active)

Nc1ncccc1OCc1ccc(Cl)c(Cl)c1
CC50 [3]: 9.61 µM (active)

CCOC(=O)c1sc(NC(=O)Nc2ccc(Cl)cc2)nc1C
EC50 [4]: 63.5 µM (active) | EC50 [5]: 80.8 µM (active)

N#C/C(=C\c1ccc(-c2ccc(Br)cc2)o1)C(=O)NCCc1c[nH]c2ccccc12
CC50 [6]: > 40 µM (active)

Cc1cccc2c(N)c3c(nc12)N(C)CC3
IC50 [7]: 115 µM (active)

COc1ccc(S(=O)(=O)N2CCN(C(=O)c3ccc([N+](=O)[O-])o3)CC2)cc1
EC50 [8]: > 30 µM (not active) | EC50 (H4): 7.96 µM (active) | EC50 [1]: > 120 µM (not active) | EC50 [2]: 7.51 µM (active) | EC50 [9]: 0.103 µM (active)

CC1(C)CC(N2CCN(Cc3ccccc3)CC2)=CC(=[N+]2CCCCC2)C1
EC50 [8]: > 60 µM (not active) | AC50 (INS1): 2.16 µM (active) | EC50 [10]: 2.72 µM (active) | EC50 [11]: > 160 µM (inactive) | EC50 [9]: 0.289 µM (active)

COc1ccc(C2Nc3ccc4ccccc4c3-c3c2c(=O)oc2ccccc32)cc1 (stereo not drawn)
EC50 [4]: 9 µM (active) | EC50 [8]: > 60 µM (not active) | EC50 [5]: 9.13 µM (active) | EC50 [9]: 0.204 µM (active)

C/N=c1\scc(C)n1/N=C/c1cc(Br)c(O)c(Br)c1
IC50 [7]: 77 µM (active)

CC12CCC(c3c(C(=O)Nc4nccs4)nn(-c4ccccc4)c31)C2(C)C (stereo not drawn)
EC50 [4]: 38.1 µM (active) | EC50 [5]: 24.2 µM (active) | EC50 (Streptokinase A): 28.5 µM (active) | EC50 (Streptococcus): > 150 µM (not active) | EC50 [12]: 6.56 µM (active)

O=[N+]([O-])c1ccc(N=Nc2ccc(O)cc2O)cc1
EC50 [13]: 3 µM (active) | EC50 [14]: 1.05 µM (active) | EC50 (Streptokinase A): > 50 µM (not active) | EC50 (Streptococcus): 24.6 µM (active) | EC50 [12]: 2.44 µM (active)

Cc1cc2cc(C)c3nnc(SCC(=O)Nc4ccc(S(=O)(=O)N5CCCCC5)cc4)n3c2cc1C
EC50 [4]: 7.79 µM (active) | EC50 [5]: 7.24 µM (active)

Cc1ccc(/C=C/C2=NN(Cc3ccccc3Cl)C(=O)CC2)cc1
CC50 [3]: 16.6 µM (active)

CC(C)c1ccc2[nH]c(O)c(N=NC(=O)c3cccc(S(=O)(=O)N4CCCCC4)c3)c2c1
EC50 [8]: > 60 µM (not active) | CC50 [3]: 7.69 µM (active) | EC50 (Streptokinase A): > 150 µM (not active) | EC50 (Streptococcus): 110 µM (active) | EC50 [9]: 0.58 µM (active) | EC50 [12]: 4.39 µM (active)

Cc1c(C(=O)OCC(=O)N2C(C)CCCC2C)oc2ccccc12 (stereo not drawn)
EC50 (H4): 72.9 µM (active) | EC50 [1]: 14.6 µM (active) | EC50 [2]: 28.7 µM (active)

O=[N+]([O-])c1ccc(-n2cnc3ccccc32)c([N+](=O)[O-])c1
EC50 [8]: > 60 µM (inconclusive) | AC50 (INS1): 14.3 µM (active) | EC50 [9]: 0.485 µM (active)

C#CCN(C(=O)c1cc(COc2cccc(C(F)(F)F)c2)on1)C1CCCCC1
AC50 (INS1): > 120 µM (inactive)

Cc1ccc(-c2nnc(S)n2/N=C/c2c(C)nn(-c3ccccc3)c2C)cc1
EC50 [4]: 25.8 µM (active) | EC50 [5]: 26 µM (active)

O=C(Cn1c(=O)oc2cc(S(=O)(=O)N3CCCCC3)ccc21)N1CCc2ccccc21
EC50 [4]: 18.4 µM (active) | EC50 [5]: 16.9 µM (active)

O=C(CSCC(=O)N1CCOCC1)Nc1nc(-c2ccc3c(c2)OCO3)cs1
EC50 (H4): > 120 µM (not active) | EC50 [1]: 86.3 µM (active) | EC50 [2]: 56.1 µM (active)

CC[C@H](C)Cc1cn([C@@H](CCCCNC(=O)OC(C)(C)C)C(=O)NCCCCCCCCCCC(=O)N2CCN(C(=O)OC(C)(C)C)CC2)nn1
AC50 (INS1): 7.02 µM (active)

CN1C(=O)C(CC(=O)Nc2ccccc2F)N(NC(=O)c2ccc(Br)cc2)C1=S (stereo not drawn)
CC50 [3]: 6.39 µM (active)

CCn1c(=O)c(C(=O)Nc2ccccn2)c(O)c2ccccc21
AC50 (INS1): 30.2 µM (active)

O=C(NCc1ccccn1)C(=O)Nc1nc(C23CC4CC(CC(C4)C2)C3)cs1
CC50 [6]: 36 µM (active) | EC50 (Streptococcus): 6.91 µM (active) | EC50 [12]: 1.66 µM (active)

CN1CCN(/N=C/c2ccc(Cl)c(Cl)c2)CC1
EC50 (H4): 2.16 µM (active) | EC50 [1]: 34.9 µM (active) | EC50 [2]: 31.7 µM (active)

CC(C)C[C@H]1CN=C(Nc2ccccc2)N1CCC(C)c1ccccc1 (stereo partly drawn)
AC50 (INS1): 9.62 µM (active)

N/N=C(\Cc1cscn1)c1ccc(O)cc1O
EC50 [13]: 62.6 µM (active) | EC50 [14]: > 112 µM (not active) | IC50 [7]: 53.3 µM (active)

COCC(=O)O[C@]1(CCN(C)CCCc2nc3ccccc3[nH]2)CCc2cc(F)ccc2[C@@H]1C(C)C
IC50 [15]: > 20 µM (inactive) | CC50 [6]: 14.2 µM (active)

Cc1ccccc1-c1nnc(SCc2ccccc2)o1
EC50 [1]: 7.97 µM (active) | EC50 [2]: 62.5 µM (active)

COc1cccc(CNCc2ccco2)c1O
IC50 [7]: 117 µM (active)

CC(C)c1ccc2c(c1)CCC1C(C)(CN)CCCC21C (stereo not drawn)
EC50 [10]: > 38 µM (not active) | CC50 [6]: 7.48 µM (active) | EC50 [11]: 9.63 µM (inconclusive)

CCOc1ccc(-c2c(=O)n(OCc3ccc([N+](=O)[O-])cc3)c3ccccc3[n+]2[O-])cc1
EC50 (H4): > 120 µM (not active) | EC50 [1]: > 120 µM (not active) | EC50 [2]: > 120 µM (not active)

Oc1ccc(Cc2ccc(Cl)cc2)c(O)c1
IC50 [7]: 69.5 µM (active)

COc1cc(/C=N/NC(=O)CCC(=O)Nc2ccc(F)cc2)ccc1O
IC50 [7]: 35.8 µM (active)

CCC1=NN2C(=N)/C(=C\c3ccc(OCCOc4ccccc4)c(OC)c3)C(=O)N=C2S1
EC50 (H4): 5.43 µM (active) | EC50 [1]: 9.45 µM (active) | EC50 [2]: 8.4 µM (active)

O=C1C(/C=N/CCCN2CCCC2=O)=C(O)c2ccccc21
EC50 (H4): 12.9 µM (active) | EC50 [1]: 14.8 µM (active) | EC50 [2]: 5.6 µM (active)

CSC(S)=NCc1cccnc1
EC50 [10]: 1.13 µM (active) | CC50 [6]: 9.84 µM (active) | EC50 [11]: > 160 µM (inactive)

CCOc1ccccc1/C=c1\sc2ncnn2c1=O
IC50 [7]: 48.7 µM (active)

Cc1ccc2nc(-c3cccc(-c4cccc(Cl)c4)c3)c(NCc3ccccc3)n2c1
AC50 (INS1): 7.9 µM (active) | AC50 [16]: 4.01 µM (active)

Cc1ccc(C(=O)N2N=C(c3ccc(NS(C)(=O)=O)cc3)CC2c2cccs2)cc1 (stereo not drawn)
CC50 [6]: > 40 µM (active)

CCn1cc(SCC(=O)N2CCOCC2)c2ccccc21
EC50 (H4): > 120 µM (not active) | EC50 [1]: 5.63 µM (active) | EC50 [2]: 82.1 µM (active)
